Test results as given in US20100160454A1, “ANTIMICROBIAL AGENTS, COMPOSITIONS AND PRODUCTS CONTAINING THE SAME, AND METHODS OF USING THE COMPOSITIONS AND PRODUCTS” (Eastman Chemical Company, priority 2008, published 2010).

Columns and labels:
Experiment in all cases: Microbiological challenge testing in BPW broth, graded subculture counts
Assay type in all cases: cell-based
Aeromonas sp. Wild type = tested on: Aeromonas sp. Wild type
In short: (§1)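 Strains grown in TSB with 1% dextrose at 35 °C for ≥96 h. Inoculum added to BPW broth with 1% dextrose, with or without test material (w/v), to 10^5–10^6 CFU/mL at time zero. Counts by spread-plating serial 1:10 dilutions in pH 7.2 phosphate buffer on PCA, incubated at 35 °C for ≥48 h.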

[1] = tested on: Staphylococcus aureus ATCC 25923; conditions: S. aureus
In short: as §1

[2] = tested on: Escherichia coli ATCC 25922; conditions: E. Coli
In short: as §1

[3] = tested on: Burkholderia cepacia Wild type; conditions: B. cepacia
In short: as §1

[4] = tested on: Proteus vulgaris Wild type
In short: as §1

[5] = tested on: Staphylococcus epidermidis ATCC 12228
In short: as §1

SMILES: O=C([O-])CN(CCN(CC(=O)[O-])CC(=O)O)CC(=O)O.[Na+].[Na+] [EDTA, Na2EDTA]
- Aeromonas sp growth grade, 3 day (Aeromonas sp. Wild type; 0.5% weight/volume): 5 (More than 10,000 colonies estimated (thus more than 100,000 CFU/mL))
- Aeromonas sp growth grade, 14 day (Aeromonas sp. Wild type; 0.5% weight/volume): 4 (1000 to 10,000 colonies countable (thus 10,000 CFU/mL to 100,000 CFU/mL))
- Aeromonas sp growth grade, 30 day (Aeromonas sp. Wild type; 0.5% weight/volume): 4 (1000 to 10,000 colonies countable (thus 10,000 CFU/mL to 100,000 CFU/mL))
- Aeromonas sp growth grade, 3 day (Aeromonas sp. Wild type; 1.25% weight/volume): 4 (1000 to 10,000 colonies countable (thus 10,000 CFU/mL to 100,000 CFU/mL))
- Aeromonas sp growth grade, 14 day (Aeromonas sp. Wild type; 1.25% weight/volume): 4 (1000 to 10,000 colonies countable (thus 10,000 CFU/mL to 100,000 CFU/mL))
- Aeromonas sp growth grade, 30 day (Aeromonas sp. Wild type; 1.25% weight/volume): 4 (1000 to 10,000 colonies countable (thus 10,000 CFU/mL to 100,000 CFU/mL))
- Aeromonas sp growth grade, 3 day (Aeromonas sp. Wild type; 2.5% weight/volume): 3 (100 to 1000 colonies (thus 1000 to 10,000 CFU/mL))
- Aeromonas sp growth grade, 14 day (Aeromonas sp. Wild type; 2.5% weight/volume): 2 (52 to 100 colonies counted (thus 520 to 1000 CFU/mL))
- Aeromonas sp growth grade, 30 day (Aeromonas sp. Wild type; 2.5% weight/volume): 1 (0 to 51 colonies counted (thus 10 to 510 CFU/mL based on 0.1-mL sample))
- Aeromonas sp growth grade, 3 day (Aeromonas sp. Wild type; 5.0% weight/volume): 1 (0 to 51 colonies counted (thus 10 to 510 CFU/mL based on 0.1-mL sample))
- Aeromonas sp growth grade, 14 day (Aeromonas sp. Wild type; 5.0% weight/volume): 0
- Aeromonas sp growth grade, 30 day (Aeromonas sp. Wild type; 5.0% weight/volume): 0
- Grade ([1]; 0.5% (wt/vol), 3 day): 4 (1000 to 10,000 colonies countable (thus 10,000 CFU/mL to 100,000 CFU/mL))
- Grade ([1]; 0.5% (wt/vol), 14 day): 4 (1000 to 10,000 colonies countable (thus 10,000 CFU/mL to 100,000 CFU/mL))
- Grade ([1]; 0.5% (wt/vol), 30 day): 4 (1000 to 10,000 colonies countable (thus 10,000 CFU/mL to 100,000 CFU/mL))
- Grade ([1]; 1.25% (wt/vol), 3 day): 2.7
- Grade ([1]; 1.25% (wt/vol), 14 day): 2 (52 to 100 colonies counted (thus 520 to 1000 CFU/mL))
- Grade ([1]; 1.25% (wt/vol), 30 day): 2 (52 to 100 colonies counted (thus 520 to 1000 CFU/mL))
- Grade ([1]; 2.5% (wt/vol), 3 day): 1 (0 to 51 colonies counted (thus 10 to 510 CFU/mL based on 0.1-mL sample))
- Grade ([1]; 2.5% (wt/vol), 14 day): 0.3
- Grade ([1]; 2.5% (wt/vol), 30 day): 0.3
- Grade ([1]; 5.0% (wt/vol), 3 day): 0
- Grade ([1]; 5.0% (wt/vol), 14 day): 0
- Grade ([1]; 5.0% (wt/vol), 30 day): 0
- Grade ([2]; 0.5% (wt/vol), 3 day): 5 (More than 10,000 colonies estimated (thus more than 100,000 CFU/mL))
- Grade ([2]; 0.5% (wt/vol), 14 day): 5 (More than 10,000 colonies estimated (thus more than 100,000 CFU/mL))
- Grade ([2]; 0.5% (wt/vol), 30 day): 5 (More than 10,000 colonies estimated (thus more than 100,000 CFU/mL))
- Grade ([2]; 1.25% (wt/vol), 3 day): 4 (1000 to 10,000 colonies countable (thus 10,000 CFU/mL to 100,000 CFU/mL))
- Grade ([2]; 1.25% (wt/vol), 14 day): 4 (1000 to 10,000 colonies countable (thus 10,000 CFU/mL to 100,000 CFU/mL))
- Grade ([2]; 1.25% (wt/vol), 30 day): 4 (1000 to 10,000 colonies countable (thus 10,000 CFU/mL to 100,000 CFU/mL))
- Grade ([2]; 2.5% (wt/vol), 3 day): 0
- Grade ([2]; 2.5% (wt/vol), 14 day): 0
- Grade ([2]; 2.5% (wt/vol), 30 day): 0
- Grade ([2]; 5.0% (wt/vol), 3 day): 0
- Grade ([2]; 5.0% (wt/vol), 14 day): 0
- Grade ([2]; 5.0% (wt/vol), 30 day): 0
- Grade ([3]; 0.5% (wt/vol), 3 day): 4 (1000 to 10,000 colonies countable (thus 10,000 CFU/mL to 100,000 CFU/mL))
- Grade ([3]; 0.5% (wt/vol), 14 day): 4 (1000 to 10,000 colonies countable (thus 10,000 CFU/mL to 100,000 CFU/mL))
- Grade ([3]; 0.5% (wt/vol), 30 day): 4 (1000 to 10,000 colonies countable (thus 10,000 CFU/mL to 100,000 CFU/mL))
- Grade ([3]; 1.25% (wt/vol), 3 day): 3 (100 to 1000 colonies (thus 1000 to 10,000 CFU/mL))
- Grade ([3]; 1.25% (wt/vol), 14 day): 2 (52 to 100 colonies counted (thus 520 to 1000 CFU/mL))
- Grade ([3]; 1.25% (wt/vol), 30 day): 2 (52 to 100 colonies counted (thus 520 to 1000 CFU/mL))
- Grade ([3]; 2.5% (wt/vol), 3 day): 1 (0 to 51 colonies counted (thus 10 to 510 CFU/mL based on 0.1-mL sample))
- Grade ([3]; 2.5% (wt/vol), 14 day): 0
- Grade ([3]; 2.5% (wt/vol), 30 day): 0
- Grade ([3]; 5.0% (wt/vol), 3 day): 0
- Grade ([3]; 5.0% (wt/vol), 14 day): 0
- Grade ([3]; 5.0% (wt/vol), 30 day): 0
- P. vulgaris growth grade, 3 day ([4]; 0.5% weight/volume): 5 (More than 10,000 colonies estimated (thus more than 100,000 CFU/mL))
- P. vulgaris growth grade, 13 day ([4]; 0.5% weight/volume): 4 (1000 to 10,000 colonies countable (thus 10,000 CFU/mL to 100,000 CFU/mL))
- P. vulgaris growth grade, 30 day ([4]; 0.5% weight/volume): 4 (1000 to 10,000 colonies countable (thus 10,000 CFU/mL to 100,000 CFU/mL))
- P. vulgaris growth grade, 3 day ([4]; 1.25% weight/volume): 3 (100 to 1000 colonies (thus 1000 to 10,000 CFU/mL))
- P. vulgaris growth grade, 13 day ([4]; 1.25% weight/volume): 1 (0 to 51 colonies counted (thus 10 to 510 CFU/mL based on 0.1-mL sample))
- P. vulgaris growth grade, 30 day ([4]; 1.25% weight/volume): 3 (100 to 1000 colonies (thus 1000 to 10,000 CFU/mL))
- P. vulgaris growth grade, 3 day ([4]; 2.5% weight/volume): 4 (1000 to 10,000 colonies countable (thus 10,000 CFU/mL to 100,000 CFU/mL))
- P. vulgaris growth grade, 13 day ([4]; 2.5% weight/volume): 4 (1000 to 10,000 colonies countable (thus 10,000 CFU/mL to 100,000 CFU/mL))
- P. vulgaris growth grade, 30 day ([4]; 2.5% weight/volume): 4 (1000 to 10,000 colonies countable (thus 10,000 CFU/mL to 100,000 CFU/mL))
- P. vulgaris growth grade, 3 day ([4]; 5.0% weight/volume): 4 (1000 to 10,000 colonies countable (thus 10,000 CFU/mL to 100,000 CFU/mL))
- P. vulgaris growth grade, 13 day ([4]; 5.0% weight/volume): 4 (1000 to 10,000 colonies countable (thus 10,000 CFU/mL to 100,000 CFU/mL))
- P. vulgaris growth grade, 30 day ([4]; 5.0% weight/volume): 4 (1000 to 10,000 colonies countable (thus 10,000 CFU/mL to 100,000 CFU/mL))
- S. epidermidis growth grade, 3 day ([5]; 0.5% weight/volume): 4 (1000 to 10,000 colonies countable (thus 10,000 CFU/mL to 100,000 CFU/mL))
- S. epidermidis growth grade, 13 day ([5]; 0.5% weight/volume): 3 (100 to 1000 colonies (thus 1000 to 10,000 CFU/mL))
- S. epidermidis growth grade, 30 day ([5]; 0.5% weight/volume): 4 (1000 to 10,000 colonies countable (thus 10,000 CFU/mL to 100,000 CFU/mL))
- S. epidermidis growth grade, 3 day ([5]; 1.25% weight/volume): 2 (52 to 100 colonies counted (thus 520 to 1000 CFU/mL))
- S. epidermidis growth grade, 13 day ([5]; 1.25% weight/volume): 1 (0 to 51 colonies counted (thus 10 to 510 CFU/mL based on 0.1-mL sample))
- S. epidermidis growth grade, 30 day ([5]; 1.25% weight/volume): 0
- S. epidermidis growth grade, 3 day ([5]; 2.5% weight/volume): 0
- S. epidermidis growth grade, 13 day ([5]; 2.5% weight/volume): 0
- S. epidermidis growth grade, 30 day ([5]; 2.5% weight/volume): 0
- S. epidermidis growth grade, 3 day ([5]; 5.0% weight/volume): 0
- S. epidermidis growth grade, 13 day ([5]; 5.0% weight/volume): 0
- S. epidermidis growth grade, 30 day ([5]; 5.0% weight/volume): 0
